Measurements reported in the supplement of paper PMC10307832.

Experiments:
Assay in all cases: relative viability (nuclei count vs DMSO), 5 days (fraction); higher = more cells survive
NCI-H1650 = tested on: NCI-H1650
Summary of the method: (§1)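 Dosing by pin tool came one day after lung cancer cell lines were seeded in 1536-well plates, using either one drug or a fixed anchor-drug dose plus five library-drug doses (not always all listed) in √10 steps. After 5 days, nuclei were counted on 4× images. Relative viability is treated-well nuclei count divided by vehicle-well nuclei count, and values are medians of duplicate plates.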

SW 1573 = tested on: SW 1573
Summary of the method: as §1

COR-L23 = tested on: COR-L23
Summary of the method: as §1

LCLC-97TM1 = tested on: LCLC-97TM1
Summary of the method: as §1

NCI-H460 = tested on: NCI-H460
Summary of the method: as §1

HCC-15 = tested on: HCC-15
Summary of the method: as §1

201T = tested on: 201T
Summary of the method: as §1

ChaGo-K-1 = tested on: ChaGo-K-1
Summary of the method: as §1

NCI-H650 = tested on: NCI-H650
Summary of the method: as §1

HCC-78 = tested on: HCC-78
Summary of the method: as §1

NCI-H441 = tested on: NCI-H441
Summary of the method: as §1

LOU-NH91 = tested on: LOU-NH91
Summary of the method: as §1

NCI-H2009 = tested on: NCI-H2009
Summary of the method: as §1

NCI-H2023 = tested on: NCI-H2023
Summary of the method: as §1

LCLC-103H = tested on: LCLC-103H
Summary of the method: as §1

NCI-H1648 = tested on: NCI-H1648
Summary of the method: as §1

NCI-H1734 = tested on: NCI-H1734
Summary of the method: as §1

A-427 = tested on: A-427
Summary of the method: as §1

NCI-H1993 = tested on: NCI-H1993
Summary of the method: as §1

HCC-366 = tested on: HCC-366
Summary of the method: as §1

HARA = tested on: HARA
Summary of the method: as §1

NCI-H2126 = tested on: NCI-H2126
Summary of the method: as §1

RERF-LC-KJ = tested on: RERF-LC-KJ
Summary of the method: as §1

HCC-44 = tested on: HCC-44
Summary of the method: as §1

## CCCCCCCCCCCC1=C(O)C(=O)C=C(O)C1=O [Embelin] + Cc1cc(Nc2cc(N3CCN(C)CC3)nc(Sc3ccc(NC(=O)C4CC4)cc3)n2)n[nH]1 [Tozasertib] (partner 0.1 µM)
NCI-H1650; first compound 0.08 µM
  relative viability: 0.396
NCI-H1650; first compound 0.8 µM
  relative viability: 0.452
NCI-H1650; first compound 2.53 µM
  relative viability: 0.399
NCI-H1650; first compound 8 µM
  relative viability: 0.462
SW 1573; first compound 0.08 µM
  relative viability: 0.18
SW 1573; first compound 0.8 µM
  relative viability: 0.25
SW 1573; first compound 2.53 µM
  relative viability: 0.167
SW 1573; first compound 8 µM
  relative viability: 0.187
COR-L23; first compound 0.08 µM
  relative viability: 0.191
COR-L23; first compound 0.8 µM
  relative viability: 0.253
COR-L23; first compound 2.53 µM
  relative viability: 0.233
COR-L23; first compound 8 µM
  relative viability: 0.19
LCLC-97TM1; first compound 0.08 µM
  relative viability: 0.186
LCLC-97TM1; first compound 0.8 µM
  relative viability: 0.239
LCLC-97TM1; first compound 2.53 µM
  relative viability: 0.265
LCLC-97TM1; first compound 8 µM
  relative viability: 0.218
NCI-H460; first compound 0.08 µM
  relative viability: 0.516
NCI-H460; first compound 0.8 µM
  relative viability: 0.493
NCI-H460; first compound 2.53 µM
  relative viability: 0.666
NCI-H460; first compound 8 µM
  relative viability: 0.883
HCC-15; first compound 0.08 µM
  relative viability: 0.412
HCC-15; first compound 0.8 µM
  relative viability: 0.486
HCC-15; first compound 2.53 µM
  relative viability: 0.55
HCC-15; first compound 8 µM
  relative viability: 0.401
201T; first compound 0.08 µM
  relative viability: 0.934
201T; first compound 0.8 µM
  relative viability: 0.963
201T; first compound 2.53 µM
  relative viability: 0.94
201T; first compound 8 µM
  relative viability: 1.06
ChaGo-K-1; first compound 0.08 µM
  relative viability: 0.243
ChaGo-K-1; first compound 0.8 µM
  relative viability: 0.239
ChaGo-K-1; first compound 2.53 µM
  relative viability: 0.212
ChaGo-K-1; first compound 8 µM
  relative viability: 0.243
NCI-H650; first compound 0.08 µM
  relative viability: 0.823
NCI-H650; first compound 0.8 µM
  relative viability: 1.04
NCI-H650; first compound 2.53 µM
  relative viability: 0.869
NCI-H650; first compound 8 µM
  relative viability: 0.724
HCC-78; first compound 0.08 µM
  relative viability: 0.519
HCC-78; first compound 0.8 µM
  relative viability: 0.511
HCC-78; first compound 2.53 µM
  relative viability: 0.697
HCC-78; first compound 8 µM
  relative viability: 0.437
NCI-H441; first compound 0.08 µM
  relative viability: 0.588
NCI-H441; first compound 0.8 µM
  relative viability: 0.628
NCI-H441; first compound 2.53 µM
  relative viability: 0.624
NCI-H441; first compound 8 µM
  relative viability: 0.629
LOU-NH91; first compound 0.08 µM
  relative viability: 0.751
LOU-NH91; first compound 0.8 µM
  relative viability: 0.827
LOU-NH91; first compound 2.53 µM
  relative viability: 0.749
LOU-NH91; first compound 8 µM
  relative viability: 0.808
NCI-H2009; first compound 0.08 µM
  relative viability: 0.753
NCI-H2009; first compound 0.8 µM
  relative viability: 0.915
NCI-H2009; first compound 2.53 µM
  relative viability: 0.798
NCI-H2009; first compound 8 µM
  relative viability: 0.714
NCI-H2023; first compound 0.08 µM
  relative viability: 0.412
NCI-H2023; first compound 0.8 µM
  relative viability: 0.406
NCI-H2023; first compound 2.53 µM
  relative viability: 0.369
NCI-H2023; first compound 8 µM
  relative viability: 0.302
LCLC-103H; first compound 0.08 µM
  relative viability: 0.549
LCLC-103H; first compound 0.8 µM
  relative viability: 0.557
LCLC-103H; first compound 2.53 µM
  relative viability: 0.508
LCLC-103H; first compound 8 µM
  relative viability: 0.501
NCI-H1648; first compound 0.08 µM
  relative viability: 0.472
NCI-H1648; first compound 0.8 µM
  relative viability: 0.627
NCI-H1648; first compound 2.53 µM
  relative viability: 0.366
NCI-H1648; first compound 8 µM
  relative viability: 0.582
NCI-H1734; first compound 0.08 µM
  relative viability: 0.26
NCI-H1734; first compound 0.8 µM
  relative viability: 0.27
NCI-H1734; first compound 2.53 µM
  relative viability: 0.292
NCI-H1734; first compound 8 µM
  relative viability: 0.262
A-427; first compound 0.08 µM
  relative viability: 0.229
A-427; first compound 0.8 µM
  relative viability: 0.196
A-427; first compound 2.53 µM
  relative viability: 0.188
A-427; first compound 8 µM
  relative viability: 0.243
NCI-H1993; first compound 0.08 µM
  relative viability: 0.523
NCI-H1993; first compound 0.8 µM
  relative viability: 0.593
NCI-H1993; first compound 2.53 µM
  relative viability: 0.594
NCI-H1993; first compound 8 µM
  relative viability: 0.548
HCC-366; first compound 0.08 µM
  relative viability: 0.108
HCC-366; first compound 0.8 µM
  relative viability: 0.188
HCC-366; first compound 2.53 µM
  relative viability: 0.177
HCC-366; first compound 8 µM
  relative viability: 0.113
HARA; first compound 0.08 µM
  relative viability: 0.106
HARA; first compound 0.8 µM
  relative viability: 0.105
HARA; first compound 2.53 µM
  relative viability: 0.119
HARA; first compound 8 µM
  relative viability: 0.133
NCI-H2126; first compound 0.08 µM
  relative viability: 0.809
NCI-H2126; first compound 0.8 µM
  relative viability: 0.907
NCI-H2126; first compound 2.53 µM
  relative viability: 0.919
NCI-H2126; first compound 8 µM
  relative viability: 0.878
RERF-LC-KJ; first compound 0.08 µM
  relative viability: 0.567
RERF-LC-KJ; first compound 0.8 µM
  relative viability: 0.532
RERF-LC-KJ; first compound 2.53 µM
  relative viability: 0.564
RERF-LC-KJ; first compound 8 µM
  relative viability: 0.368
HCC-44; first compound 0.08 µM
  relative viability: 1.03
HCC-44; first compound 0.8 µM
  relative viability: 1.12
HCC-44; first compound 2.53 µM
  relative viability: 0.814
HCC-44; first compound 8 µM
  relative viability: 0.836
